Laboratory results: paper PMC7217877, “N-AS-triggered SPMs are direct regulators of microglia in a model of Alzheimer’s disease” (Nature Communications, 2020)
Values joined by “and” are separate entries in the source; they are usually repeats but may differ in a detail not shown here. Equal values may be shown once.

Tests used:
[1] = system: 5×FAD mice; assay: western blot of synaptophysin, MAP2, synapsin1, PSD95 (Supplementary Fig 8f-i); format: in vivo, mouse; set-up: synaptophysin (western blot) / MAP2 (western blot) / synapsin1 (western blot): scale not given here
Method: Samples were lysed in RIPA buffer (Cell signaling Technologies), then subjected to SDS-PAGE and transferred to a nitrocellulose membrane. Membranes were blocked with 5% milk, incubated with primary antibody and then incubated with the appropriate horseradish peroxidase-conjugated secondary antibody. […] We performed densitometric quantification using the ImageJ software (National Institutes of Health). Images have been cropped for presentation.
Transgenic mouse lines over-expressing the hAPP695swe (APP) and presenilin-1M146V (PS1) mutations were originated from GlaxoSmithKline (Harlow, UK)[32] and maintained as described previously. We purchased 5×FAD mice from Jackson Labs (Stock number. 34840-JAX). Because APP/PS1 and 5xFAD mice show sex differences in disease progression, we used only male mice. To examine possible therapeutic effect of N-AS and aspirin in APP/PS1 mice, the N-AS (30 mg kg^−1, Sigma-Aldrich, 01912) was injected daily s.c. for 8 weeks to 7-months-old APP/PS1 mice until the age of 9 months, and aspirin (2 mg kg^−1, Sigma-Aldrich, A5376)[33] was administrated orally to 7-months-old APP/PS1 mice for 8 weeks. Also, to confirm possible therapeutic efficacy of N-AS in 5×FAD, the N-AS (30 mg kg^−1, Sigma-Aldrich, 01912) was injected daily s.c. for 4 weeks to 3-months-old 5×FAD mice until the age of 4 months. Block randomization method was used to allocate the animals to experimental groups. To eliminate the bias, we were blinded in experimental progress such as data collection and data analysis. Mice were housed at temperature of 22 °C and a 12 h day/12 h night cycle with free access to tap water and food pellets. All protocols were approved by the Kyungpook National University Institutional Animal Care and Use Committee.

[2] = system: neuron; assay: SphK activity in primary cells; format: cell-based, C57BL/6 mice; conditions: Ab 10mM, replicates
Method: We confirmed S1P formation through SphK1 enzymatic activity measurements as previously described[11] using a UPLC (Ultra performance liquid chromatography) system (Waters). […] After pre-incubation, 1 mM ATP (Amresco, 0220) was added the mixture, and it was incubated at 37 °C for 1 h. The […] reactions were stopped by adding 53 μl of ethanol, and centrifuged at 15,493×g for 5 min. Thirty microliter of the supernatant was then transferred to a sampling glass vial and 5 μl was applied onto a UPLC system for analysis. S1P formation was followed as phosphorylation of (7-nitro-2-1,3-benzoxadiazol-4-yl)-d-erythro (NBD)-sphingosine (Avanti Polar Lipids) to NBD-S1P. Quantification was achieved by comparison with NBD-S1P (Avanti Polar Lipids) standards.
To confirm the generation and roles of N-AS in neurons, cells from E18 C57BL/6 mice were prepared as previously described. Cortices were dissected and then dissociated followed by incubation in papain (Worthington) at 37 °C for 15 min. […] The human microglia treated with Aβ 1–42 and/or zileuton was incubated with N-AS (2.5 μM, 2 h, Sigma-Aldrich, 01912), and were analyzed for the generation and roles of N-AS.

[3] = system: neuron; assay: acetyl-CoA level in primary cells (assay kit); format: cell-based, C57BL/6 mice; conditions: Ab 10mM, replicates
Method: To confirm the generation and roles of N-AS in neurons, cells from E18 C57BL/6 mice were prepared as previously described. Cortices were dissected and then dissociated followed by incubation in papain (Worthington) at 37 °C for 15 min. Neurons were plated on poly-L-lysine-coated coverslips with neuronal culture medium, serum-free Neurobasal medium (Gibco) containing 2% B27 supplements (Gibco), 1 mM Glutamax supplement (Gibco), and 100 U ml^−1 streptomycin/ 100 U ml^−1 penicillin (Gibco) at 37 °C in a humidified atmosphere of 5% CO2. […] Primary astrocyte cultures were prepared from C57BL/6 mice as described previously. In brief, after removal of the meninges, postnatal day 7 (P7) mouse brain tissues were minced and incubated in a rocking water bath at 37 °C for 30 min in the presence of 0.25% trypsin-EDTA (Sigma-Aldrich). Enzyme-digested dissociated cells were triturated with astrocyte-specific medium (DMEM/F12 containing 10% FBS and 1% penicillin-streptomycin) and centrifuged at 155×g for 8 min. The pellet was resuspended in astrocyte-specific medium and passed through a 40-μm cell strainer. […] The human microglia treated with Aβ 1–42 and/or zileuton was incubated with N-AS (2.5 μM, 2 h, Sigma-Aldrich, 01912), and were analyzed for the generation and roles of N-AS. […]

Question: How did the “synaptophysin (western blot)” value ([1]; 5xFAD+N-AS, sFig 8f (sheet untitled)) turn out when `CCCCCCCCCCCCC/C=C/[C@@H](O)[C@H](CO)NC(C)=O` [N-AS, N-((2S,3R,E)-1,3-Dihydroxyoctadec-4-en-2-yl)acetamide] was run?
Answer: 4.053 and 6.357 and 5.065 and 6.083 and 5.205 and 5.711

Question: And the “MAP2 (western blot)” value ([1]; 5xFAD+N-AS, sFig 8g (sheet untitled))?
Answer: 2.523 and 3.013 and 3.332 and 2.975 and 2.768 and 3.172

Question: And the “PSD95 (western blot)” value ([1]; 5xFAD+N-AS, sFig 8i (sheet untitled))?
Answer: 1.388 and 2.072 and 1.927 and 1.53 and 1.73 and 1.999

Question: What about the “synapsin1 (western blot)” value ([1]; 5xFAD+N-AS, sFig 8h (sheet untitled)) of the same compound?
Answer: 3.576 and 2.661 and 2.523 and 3.332 and 3.119 and 2.592

Question: What about the synapse activity ([1]; 5×FAD, N-AS 30 mg kg^-1 daily s.c. 4 weeks) of the same compound?
Answer: similarly improved AD pathology of 5×FAD mice

Question: How did the “SphK activity (Fig 3d)” value [2] turn out when “Ab: Aβ 1–42 (Invitrogen, 03112) used to induce an AD environment in cells” was run?
Answer: 1.391 and 1.001 and 1.873 and 1.345 and 1.437 and 1.609

Question: And the “acetyl-CoA (Fig 3e)” value [3]?
Answer: 0.1397 and 0.4178 and 0.62 and 0.7945 and 0.1176 and 0.7145
